According to patent publication US12109308B2, “Aqueous formulation comprising 1-(4-{[4-(dimethylamino)piperidin-1-yljcarbonyl}phenyl)-3-[4-(4,6-dimorpholin-4-yl-1,3,5-triazin-2-yl)phenyl]urea” (Pfizer Inc., priority 2018, dated 2024):

Columns and labels:
[1] = Stability and water solubility of the crystalline free base (background statement); assay type: physicochemical
[2] = only with lactic acid and orthophosphoric acid, of the many acids tested; no cyclodextrin; cited from earlier work

CN(C)C1CCN(C(=O)c2ccc(NC(=O)Nc3ccc(-c4nc(N5CCOCC5)nc(N5CCOCC5)n4)cc3)cc2)CC1 [1-(4-{[4-(Dimethylamino)piperidin-1-yl]carbonyl}phenyl)-3-[4-(4,6-dimorpholin-4-yl-1,3,5-triazin-2-yl)phenyl]urea]
chemically and physically stable for (time) ([1]; crystalline form, 25° C. and 60% Relative Humidity (RH)): up to 3 years | water solubility of the free base ([1]; for an aqueous solution formulation for intravenous or parenteral administration at therapeutic dosage levels): insufficiently water soluble | concentration achieved as a clear solution [2]: ≥ 3000 µg/mL
